In patent US20260306503A1, “(S)-2-HYDROXY-6-((4-(2-(2-HYDROXYETHYL)NICOTINOYL)MORPHOLIN-3-YL)METHOXY)BENZALDEHYD FOR USE IN THE TREATMENT OF SICKLE CELL DISEASE” (Global Blood Therapeutics, Inc., priority 2023, published 2026):

Tested on: participants with SCD
Test: Preliminary blood analysis of SCD patients given oral Compound I, 300 mg QD for 14 days then 200 mg QD through Week 12 (Part A Sub Study 2);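 on Bilirubin total: values in mg/dL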
Type: in vivo, human
Description: Part A of this study is a Phase 2 randomized, open-label, dose-finding study in approximately 60 adult participants with SCD. The primary objective of Part A of this study is to assess the effects of Compound I in adult participants with SCD as measured by change in hemoglobin.
Participants are screened for eligibility in the study from Day −28 through Day −1. Eligible participants are randomized on Day 1 based on a 1:1 (100 mg: 150 mg) allocation and will receive their initial dose (loading dose) of Compound I. After completion of Day 1 assessments and subsequent loading doses, participants will continue with administration of their maintenance dose daily through Week 12.
Some newly enrolled participants in Part A will receive a loading dose regimen of 300 mg of Compound I once daily over the first 14 days. Participants will then receive 200 mg once daily maintenance doses through Week 12.

O=Cc1c(O)cccc1OC[C@@H]1COCCN1C(=O)c1cccnc1CCO [Compound I, (S)-2-hydroxy-6-((4-(2-(2-hydroxyethyl)nicotinoyl)morpholin-3-yl)methoxy)benzaldehyde]
Bilirubin direct (Patient A, Day 1, Day 0 (screening) 0.48): <0.01 mg/dL | Absolute neutrophil (Patient A, Day 1, Day 0 (screening) 1.7): 2.2 K/μL | Reticulocytes (Patient A, Day 1, Day 0 (screening) 2.2): 5.2% | Bilirubin total (Patient A, Day 1, Day 0 (screening) 2.4): 2.16 mg/dL | Hemoglobin (HGB) (Patient A, Day 1, Day 0 (screening) 7.0): 8.8 g/dL | Hematocrit (HCT) (Patient A, Day 1, Day 0 (screening) 20.4): 25.1% | Alanine Aminotransferase (ALT) (Patient A, Day 1, Day 0 (screening) 26.1): 28.2 IU/L | Aspartate Aminotransferase (AST) (Patient A, Day 1, Day 0 (screening) 56.0): 60.0 IU/L | Alkaline phosphatase (Patient A, Day 1, Day 0 (screening) 143.5): 152.7 IU/L | Platelet count (Patient A, Day 1, Day 0 (screening) 148): 219 K/μL | Lactate dehydrogenase (LDH) (Patient A, Day 1, Day 0 (screening) 358): 339 IU/L | Bilirubin direct (Patient A, Day 15, Day 0 (screening) 0.48): <0.01 mg/dL | Absolute neutrophil (Patient A, Day 15, Day 0 (screening) 1.7): 2.2 K/μL | Reticulocytes (Patient A, Day 15, Day 0 (screening) 2.2): 3.0% | Bilirubin total (Patient A, Day 15, Day 0 (screening) 2.4): 1.06 mg/dL | Hemoglobin (HGB) (Patient A, Day 15, Day 0 (screening) 7.0): 10.6 g/dL | Hematocrit (HCT) (Patient A, Day 15, Day 0 (screening) 20.4): 30.9% | Alanine Aminotransferase (ALT) (Patient A, Day 15, Day 0 (screening) 26.1): 26.1 IU/L | Aspartate Aminotransferase (AST) (Patient A, Day 15, Day 0 (screening) 56.0): 43.1 IU/L | Alkaline phosphatase (Patient A, Day 15, Day 0 (screening) 143.5): 156.7 IU/L | Platelet count (Patient A, Day 15, Day 0 (screening) 148): 239 K/μL | Lactate dehydrogenase (LDH) (Patient A, Day 15, Day 0 (screening) 358): 243 IU/L | Absolute neutrophil (Patient A, Day 29, Day 0 (screening) 1.7): 0.5 K/μL | Reticulocytes (Patient A, Day 29, Day 0 (screening) 2.2): 2.0% | Hemoglobin (HGB) (Patient A, Day 29, Day 0 (screening) 7.0): 12.2 g/dL | Hematocrit (HCT) (Patient A, Day 29, Day 0 (screening) 20.4): 35.9% | Platelet count (Patient A, Day 29, Day 0 (screening) 148): 211 K/μL | Bilirubin direct (Patient A, Day 43, Day 0 (screening) 0.48): 0.28 mg/dL | Absolute neutrophil (Patient A, Day 43, Day 0 (screening) 1.7): 0.6 K/μL | Bilirubin indirect (Patient A, Day 43, Day 0 (screening) 1.92): 0.78 mg/dL | Reticulocytes (Patient A, Day 43, Day 0 (screening) 2.2): 1.5% | Bilirubin total (Patient A, Day 43, Day 0 (screening) 2.4): 1.06 mg/dL | Hemoglobin (HGB) (Patient A, Day 43, Day 0 (screening) 7.0): 14.9 g/dL | Hematocrit (HCT) (Patient A, Day 43, Day 0 (screening) 20.4): 43.3% | Alanine Aminotransferase (ALT) (Patient A, Day 43, Day 0 (screening) 26.1): 28.9 IU/L | Aspartate Aminotransferase (AST) (Patient A, Day 43, Day 0 (screening) 56.0): 44.1 IU/L | Alkaline phosphatase (Patient A, Day 43, Day 0 (screening) 143.5): 160.8 IU/L | Platelet count (Patient A, Day 43, Day 0 (screening) 148): 249 K/μL | Lactate dehydrogenase (LDH) (Patient A, Day 43, Day 0 (screening) 358): 193 IU/L | Bilirubin direct (Patient A, Day 57, Day 0 (screening) 0.48): 0.38 mg/dL | Absolute neutrophil (Patient A, Day 57, Day 0 (screening) 1.7): 3.5 K/μL | Bilirubin indirect (Patient A, Day 57, Day 0 (screening) 1.92): 2.39 mg/dL | Reticulocytes (Patient A, Day 57, Day 0 (screening) 2.2): 0.1% | Bilirubin total (Patient A, Day 57, Day 0 (screening) 2.4): 2.77 mg/dL | Hemoglobin (HGB) (Patient A, Day 57, Day 0 (screening) 7.0): 12.4 g/dL | Hematocrit (HCT) (Patient A, Day 57, Day 0 (screening) 20.4): 36.3% | Alanine Aminotransferase (ALT) (Patient A, Day 57, Day 0 (screening) 26.1): 66.6 IU/L | Aspartate Aminotransferase (AST) (Patient A, Day 57, Day 0 (screening) 56.0): 82.9 IU/L | Alkaline phosphatase (Patient A, Day 57, Day 0 (screening) 143.5): 198.2 IU/L | Platelet count (Patient A, Day 57, Day 0 (screening) 148): 153 K/μL | Lactate dehydrogenase (LDH) (Patient A, Day 57, Day 0 (screening) 358): 345 IU/L | Bilirubin direct (Patient A, Day 85, Day 0 (screening) 0.48): 0.08 mg/dL | Absolute neutrophil (Patient A, Day 85, Day 0 (screening) 1.7): 1.1 K/μL | Bilirubin indirect (Patient A, Day 85, Day 0 (screening) 1.92): 2.81 mg/dL | Reticulocytes (Patient A, Day 85, Day 0 (screening) 2.2): 5.2% | Bilirubin total (Patient A, Day 85, Day 0 (screening) 2.4): 2.89 mg/dL | Hemoglobin (HGB) (Patient A, Day 85, Day 0 (screening) 7.0): 11.0 g/dL | Hematocrit (HCT) (Patient A, Day 85, Day 0 (screening) 20.4): 31.0% | Alanine Aminotransferase (ALT) (Patient A, Day 85, Day 0 (screening) 26.1): 28.2 IU/L | Aspartate Aminotransferase (AST) (Patient A, Day 85, Day 0 (screening) 56.0): 54.0 IU/L | Alkaline phosphatase (Patient A, Day 85, Day 0 (screening) 143.5): 150.6 IU/L | Platelet count (Patient A, Day 85, Day 0 (screening) 148): 146 K/μL | Lactate dehydrogenase (LDH) (Patient A, Day 85, Day 0 (screening) 358): 354 IU/L | Bilirubin direct (Patient B, Day 1, Day 0 (screening) 0.18): 0.18 mg/dL | Bilirubin indirect (Patient B, Day 1, Day 0 (screening) 4.66): 4.17 mg/dL | Bilirubin total (Patient B, Day 1, Day 0 (screening) 4.84): 4.35 mg/dL | Absolute neutrophil (Patient B, Day 1, Day 0 (screening) 6.9): 7.3 K/μL | Hemoglobin (HGB) (Patient B, Day 1, Day 0 (screening) 8.3): 8.5 g/dL | Reticulocytes (Patient B, Day 1, Day 0 (screening) 11.5): 9.5% | Alanine Aminotransferase (ALT) (Patient B, Day 1, Day 0 (screening) 22.0): 22.0 IU/L | Hematocrit (HCT) (Patient B, Day 1, Day 0 (screening) 23.5): 24.7% | Aspartate Aminotransferase (AST) (Patient B, Day 1, Day 0 (screening) 41.1): 39.1 IU/L | Alkaline phosphatase (Patient B, Day 1, Day 0 (screening) 49.3): 52.4 IU/L | Platelet count (Patient B, Day 1, Day 0 (screening) 360): 344 K/μL | Lactate dehydrogenase (LDH) (Patient B, Day 1, Day 0 (screening) 371): 351 IU/L | Bilirubin direct (Patient B, Day 8, Day 0 (screening) 0.18): 0.08 mg/dL | Bilirubin indirect (Patient B, Day 8, Day 0 (screening) 4.66): 2.32 mg/dL | Bilirubin total (Patient B, Day 8, Day 0 (screening) 4.84): 2.4 mg/dL | Absolute neutrophil (Patient B, Day 8, Day 0 (screening) 6.9): 4.1 K/μL | Hemoglobin (HGB) (Patient B, Day 8, Day 0 (screening) 8.3): 11.2 g/dL | Reticulocytes (Patient B, Day 8, Day 0 (screening) 11.5): 5.4% | Alanine Aminotransferase (ALT) (Patient B, Day 8, Day 0 (screening) 22.0): 21.3 IU/L | Hematocrit (HCT) (Patient B, Day 8, Day 0 (screening) 23.5): 33.1% | Aspartate Aminotransferase (AST) (Patient B, Day 8, Day 0 (screening) 41.1): 42.1 IU/L | Alkaline phosphatase (Patient B, Day 8, Day 0 (screening) 49.3): 58.5 IU/L | Platelet count (Patient B, Day 8, Day 0 (screening) 360): 411 K/μL | Lactate dehydrogenase (LDH) (Patient B, Day 8, Day 0 (screening) 371): 385 IU/L | Bilirubin direct (Patient B, Day 29, Day 0 (screening) 0.18): 0.18 mg/dL | Bilirubin indirect (Patient B, Day 29, Day 0 (screening) 4.66): 0.88 mg/dL | Bilirubin total (Patient B, Day 29, Day 0 (screening) 4.84): 1.06 mg/dL | Absolute neutrophil (Patient B, Day 29, Day 0 (screening) 6.9): 4.1 K/μL | Hemoglobin (HGB) (Patient B, Day 29, Day 0 (screening) 8.3): 14.4 g/dL | Reticulocytes (Patient B, Day 29, Day 0 (screening) 11.5): 1.2% | Alanine Aminotransferase (ALT) (Patient B, Day 29, Day 0 (screening) 22.0): 17.2 IU/L | Hematocrit (HCT) (Patient B, Day 29, Day 0 (screening) 23.5): 42.8% | Aspartate Aminotransferase (AST) (Patient B, Day 29, Day 0 (screening) 41.1): 29.1 IU/L | Alkaline phosphatase (Patient B, Day 29, Day 0 (screening) 49.3): 67.6 IU/L | Platelet count (Patient B, Day 29, Day 0 (screening) 360): 333 K/μL | Lactate dehydrogenase (LDH) (Patient B, Day 29, Day 0 (screening) 371): 195 IU/L | Bilirubin direct (Patient B, Day 43, Day 0 (screening) 0.18): 0.18 mg/dL | Bilirubin indirect (Patient B, Day 43, Day 0 (screening) 4.66): 0.51 mg/dL | Bilirubin total (Patient B, Day 43, Day 0 (screening) 4.84): 0.69 mg/dL | Absolute neutrophil (Patient B, Day 43, Day 0 (screening) 6.9): 3.7 K/μL | Hemoglobin (HGB) (Patient B, Day 43, Day 0 (screening) 8.3): 15.2 g/dL | Reticulocytes (Patient B, Day 43, Day 0 (screening) 11.5): 0.8% | Alanine Aminotransferase (ALT) (Patient B, Day 43, Day 0 (screening) 22.0): 16.5 IU/L
